Laboratory results published in PubChem BioAssay AID330 (DTP/NCI, 2004).
Where “and” joins values, the source holds several entries; their conditions need not be identical. Identical values can stand only once. Inconclusive results and toxic doses are left out. The calls were made as follows: active = survival T/C of 150% or more; inactive = T/C below 125% in these data.

Test system: P388 leukemia ip, CD2F1 mice, survival T/C
Assay: NCI In Vivo Anticancer Drug Screen. Data for tumor model P388 Leukemia (intraperitoneal) in CD2F1 (CDF1) mice
Details: endpoint: median survival time, higher = longer survival
Summary of the method: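 Mice carrying the transplanted tumor received test compound or vehicle. Survival was recorded in each group, and the value is the treated-group measurement divided by that of the vehicle-treated control group.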

[1] = dose: 50.0 mg/kg/injection, schedule: Q01DX005 (ip), vehicle: Klucel (hydroxypropylcellulose) (HPC)
[2] = dose: 100.0 mg/kg/injection, schedule: Q01DX005 (ip), vehicle: Klucel (hydroxypropylcellulose) (HPC)
[3] = dose: 200.0 mg/kg/injection, schedule: Q01DX005 (ip), vehicle: Klucel (hydroxypropylcellulose) (HPC)
[4] = dose: 60.0 mg/kg/injection, schedule: Q01DX005 (ip), vehicle: saline with Tween-80
[5] = dose: 120.0 mg/kg/injection, schedule: Q01DX005 (ip), vehicle: saline with Tween-80
[6] = dose: 50.0 mg/kg/injection, schedule: Q01DX009 (ip), vehicle: Klucel (hydroxypropylcellulose) (HPC)
[7] = dose: 100.0 mg/kg/injection, schedule: Q01DX009 (ip), vehicle: Klucel (hydroxypropylcellulose) (HPC)
[8] = dose: 200.0 mg/kg/injection, schedule: Q01DX009 (ip), vehicle: Klucel (hydroxypropylcellulose) (HPC)
[9] = dose: 50.0 mg/kg/injection, schedule: Q01DX005 (ip), vehicle: saline with Tween-80
[10] = dose: 100.0 mg/kg/injection, schedule: Q01DX005 (ip), vehicle: saline with Tween-80
[11] = dose: 200.0 mg/kg/injection, schedule: Q01DX005 (ip), vehicle: saline with Tween-80
[12] = dose: 100.0 mg/kg/injection, schedule: Q04DX003 (ip), vehicle: saline with Tween-80
[13] = dose: 200.0 mg/kg/injection, schedule: Q04DX003 (ip), vehicle: saline with Tween-80
[14] = dose: 400.0 mg/kg/injection, schedule: Q04DX003 (ip), vehicle: saline with Tween-80
[15] = dose: 25.0 mg/kg/injection, schedule: Q01DX009 (ip), vehicle: Klucel (hydroxypropylcellulose) (HPC)
[16] = dose: 100.0 mg/kg/injection, schedule: Q01DX001 (ip), vehicle: saline
[17] = dose: 200.0 mg/kg/injection, schedule: Q01DX001 (ip), vehicle: saline
[18] = dose: 50.0 mg/kg/injection, schedule: Q01DX009 (ip), vehicle: saline with Tween-80
[19] = dose: 100.0 mg/kg/injection, schedule: Q01DX009 (ip), vehicle: saline with Tween-80
[20] = dose: 25.0 mg/kg/injection, schedule: Q01DX005 (ip), vehicle: saline with Tween-80
[21] = dose: 12.5 mg/kg/injection, schedule: Q01DX009 (ip), vehicle: Klucel (hydroxypropylcellulose) (HPC)

Measured: T/C

CCCC(C)(C)c1cc(C(C)C)cc(C(C)(C)CCC)c1O
inactive: dose: 12.5 mg/kg/injection, schedule: Q01DX009 (ip), vehicle: other 100 % of control | dose: 25.0 mg/kg/injection, schedule: Q01DX009 (ip), vehicle: other 100 % of control | dose: 25.0 mg/kg/injection, schedule: Q01DX009 (ip), vehicle: saline + Tween-80 + alcohol 103 % of control | dose: 50.0 mg/kg/injection, schedule: Q01DX009 (ip), vehicle: other 106 % of control | dose: 50.0 mg/kg/injection, schedule: Q01DX009 (ip), vehicle: saline + Tween-80 + alcohol 101 % of control | dose: 100.0 mg/kg/injection, schedule: Q01DX009 (ip), vehicle: other 112 % of control | dose: 100.0 mg/kg/injection, schedule: Q01DX009 (ip), vehicle: saline + Tween-80 + alcohol 100 % of control | dose: 200.0 mg/kg/injection, schedule: Q01DX009 (ip), vehicle: saline + Tween-80 + alcohol 113 % of control

CC1(C)CCCC2(C)C3=C(CCC12)C(=O)OC3 (stereo not given)
inactive: dose: 25.0 mg/kg/injection, schedule: Q01DX005 (ip), vehicle: Klucel (hydroxypropylcellulose) (HPC) 101 % of control | [1] 102 % of control | [2] 100 % of control | [3] 100 % of control

CCc1nc(N)nc(N)c1-c1ccc(NCCN)c([N+](=O)[O-])c1
inactive: [4] 113 % of control | [5] 116 % of control | dose: 240.0 mg/kg/injection, schedule: Q01DX005 (ip), vehicle: saline with Tween-80 116 % of control

O=C1C(=Cc2ccccc2)C(=O)c2ccccc21
inactive: dose: 25.0 mg/kg/injection, schedule: Q04DX002 (ip), vehicle: saline with Tween-80 108 % of control | dose: 50.0 mg/kg/injection, schedule: Q04DX002 (ip), vehicle: saline with Tween-80 109 % of control | dose: 100.0 mg/kg/injection, schedule: Q04DX002 (ip), vehicle: saline with Tween-80 109 % of control | dose: 200.0 mg/kg/injection, schedule: Q04DX002 (ip), vehicle: saline with Tween-80 107 % of control | dose: 400.0 mg/kg/injection, schedule: Q04DX002 (ip), vehicle: saline with Tween-80 112 % of control

O=C(NC(Cc1ccc(Br)cc1)C(=O)O)c1ccc(I)cc1 (stereo not given)
inactive: [1] 98 % of control | [2] 98 % of control | [3] 107 % of control

O=C1OCC2=Nc3cccc4cccc(c34)N12
inactive: [1] 101 % of control | [2] 94 % of control | [3] 98 % of control

Nc1cc2c(=O)c3cc(Cl)cc(Cl)c3[nH]c2c2c1C(=O)c1ccccc1C2=O
inactive: [6] 99 % of control | [7] 105 % of control | [8] 100 % of control

O=S(=O)(O)CC(O)CN1CCN(CCO)CC1 (stereo not given)
inactive: dose: 60.0 mg/kg/injection, schedule: Q01DX005 (ip), vehicle: saline 100 % of control | dose: 120.0 mg/kg/injection, schedule: Q01DX005 (ip), vehicle: saline 100 % of control | dose: 240.0 mg/kg/injection, schedule: Q01DX005 (ip), vehicle: saline 98 % of control

CC1CCCC2=C1C(O)c1cccc(N)c1C2O (stereo not given)
inactive: [1] 102 % of control | [2] 96 % of control | [3] 88 % of control

Nc1ccc2c(C(F)(F)F)cc(=O)oc2c1
inactive: [9] 106 % of control | [10] 99 % of control | [11] 94 % of control

O=C(/C=C/c1ccc(Cl)cc1Cl)c1ccc(Cl)cc1
inactive: [12] 100 % of control | [13] 95 % of control | [14] 90 % of control

CNC(=O)Nc1ccccc1C(=O)NN
inactive: [15] 100 % of control | [6] 109 % of control | [7] 105 % of control | [8] 96 % of control

CCN(CC)C(=S)SCc1cc(C)c(O)c(C)c1
inactive: [16] 98 % of control | [17] 100 % of control | dose: 400.0 mg/kg/injection, schedule: Q01DX001 (ip), vehicle: saline 100 % of control

COc1nc(=O)n(C2OC(=O)C(C)(C)C2=O)cc1F (stereo not given)
inactive: dose: 11.25 mg/kg/injection, schedule: Q04DX002 (ip), vehicle: distilled water + Tween-80 100 % of control | dose: 22.5 mg/kg/injection, schedule: Q04DX002 (ip), vehicle: distilled water + Tween-80 106 % of control | dose: 45.0 mg/kg/injection, schedule: Q04DX002 (ip), vehicle: distilled water + Tween-80 100 % of control | dose: 90.0 mg/kg/injection, schedule: Q04DX002 (ip), vehicle: distilled water + Tween-80 106 % of control | dose: 180.0 mg/kg/injection, schedule: Q04DX002 (ip), vehicle: distilled water + Tween-80 96 % of control | dose: 360.0 mg/kg/injection, schedule: Q04DX002 (ip), vehicle: distilled water + Tween-80 100 % of control

CC1SC(c2ccc(Cl)cc2)N2C(=O)C(C)SC(c3ccc(Cl)cc3)N2C1=O (stereo not given)
inactive: [18] 87 % of control | [19] 86 % of control

CN1[C@H]2C=CC(=O)[C@]1(Cl)[C@H]1C(=O)N(c3ccccc3)C(=O)[C@@H]21
inactive: [20] 106 % of control | [9] 109 % of control | [10] 105 % of control | [11] 118 % of control

CCCCCCC1(C(=O)OCCN(CC)CC)CCCCC1
inactive: [9] 101 % of control | [10] 105 % of control

CCCCCCCC1C(=O)OC2CC3C(C)=CC(=O)C(O)C3(C)C3C4(O)OCC23C1C(C)C4O (stereo not given)
inactive: dose: 1.25 mg/kg/injection, schedule: Q01DX005 (ip), vehicle: Klucel (hydroxypropylcellulose) (HPC) 107 % of control | dose: 2.5 mg/kg/injection, schedule: Q01DX005 (ip), vehicle: Klucel (hydroxypropylcellulose) (HPC) 108 % of control | dose: 5.0 mg/kg/injection, schedule: Q01DX005 (ip), vehicle: Klucel (hydroxypropylcellulose) (HPC) 107 % of control and 116 % of control | dose: 10.0 mg/kg/injection, schedule: Q01DX005 (ip), vehicle: Klucel (hydroxypropylcellulose) (HPC) 117 % of control and 124 % of control

CCOC(=O)C(=O)N1c2c(nc(N)[nH]c2=O)NCC1CNc1ccc(C(=O)NC(CCC(=O)O)C(=O)O)cc1 (stereo not given) (tested in a mixture with another compound)
inactive: dose: 50.0 mg/kg/injection, schedule: Q01DX001 (ip), vehicle: saline 111 % of control | [16] 101 % of control | [17] 101 % of control

Cc1ccccc1N1C(=O)[N+]2(CCCCC2)N=C1[O-]
inactive: [12] 99 % of control | [13] 100 % of control | [14] 92 % of control

O=C1Oc2ccc3ccccc3c2CC1C(=O)c1ccc(Cl)cc1 (stereo not given)
inactive: [18] 88 % of control | [19] 88 % of control

O=C1C=CC(=O)C(c2ccc(Cl)cc2)=C1
inactive: dose: 12.5 mg/kg/injection, schedule: Q01DX009 (ip), vehicle: saline with Tween-80 98 % of control | dose: 25.0 mg/kg/injection, schedule: Q01DX009 (ip), vehicle: saline with Tween-80 90 % of control | [19] 90 % of control

C=C1CC23CC4C5C6(C)CC(O)CC57C(C2C(O)C1C(O)C37)N4C6 (stereo not given)
inactive: [21] 101 % of control | [15] 106 % of control | [6] 101 % of control

CSc1cnnc2ccccc12
inactive: [21] 100 % of control and 95 % of control | [15] 100 % of control and 109 % of control and 88 % of control | [6] 100 % of control and 87 % of control

O=C(CCl)c1ccc([N+](=O)[O-])cc1
inactive: dose: 1.56 mg/kg/injection, schedule: Q01DX005 (ip), vehicle: Klucel (hydroxypropylcellulose) (HPC) 100 % of control | dose: 3.12 mg/kg/injection, schedule: Q01DX005 (ip), vehicle: Klucel (hydroxypropylcellulose) (HPC) 100 % of control | dose: 6.25 mg/kg/injection, schedule: Q01DX005 (ip), vehicle: Klucel (hydroxypropylcellulose) (HPC) 108 % of control | dose: 12.5 mg/kg/injection, schedule: Q01DX005 (ip), vehicle: Klucel (hydroxypropylcellulose) (HPC) 89 % of control and 98 % of control | [18] 116 % of control

CCOC(=O)c1c(OC)c(-c2ccccc2)c(=O)n2c3ccccc3n(C)c12
inactive: [4] 95 % of control | [5] 88 % of control

CC1COS(=O)(=O)C1 (stereo not given)
inactive: dose: 25.0 mg/kg/injection, schedule: Q01DX009 (ip), vehicle: saline 102 % of control | dose: 50.0 mg/kg/injection, schedule: Q01DX009 (ip), vehicle: saline 101 % of control

c1ccc(-c2nc3cc4c(cc3n3cccc23)oc2ccccc24)cc1
inactive: [20] 95 % of control | [9] 100 % of control | [10] 94 % of control
